# According to ChEMBL document CHEMBL3352112, “Exploiting the therapeutic potential of 8-β-d-glucopyranosylgenistein: synthesis, antidiabetic activity, and molecular interaction with islet amyloid polypeptide and amyloid β-peptide (1-42)” (J Med Chem, 2014):
# Assay: Cytotoxicity against […] HII4E cells after 24 hrs by MTT cell viability assay
# Type: cell-based
structure (smiles),measurement,value
O=C(N[C@H](CO)[C@H](O)c1ccc([N+](=O)[O-])cc1)C(Cl)Cl [CHLORAMPHENICOL],IC50,143 µg/mL
